Results reported in patent US12195463B2 (priority 2018, dated 2025).

How the values were obtained:
[1] = target: SERT (Homo sapiens, UniProt P31645); test: biochemical; type: binding
[2] = target: D1 (Homo sapiens, UniProt P21728); details: qualitative statement
[3] = target: D2 (Homo sapiens, UniProt P14416); details: qualitative statement
D2, sequence (P14416 1-414 isoform P14416-2): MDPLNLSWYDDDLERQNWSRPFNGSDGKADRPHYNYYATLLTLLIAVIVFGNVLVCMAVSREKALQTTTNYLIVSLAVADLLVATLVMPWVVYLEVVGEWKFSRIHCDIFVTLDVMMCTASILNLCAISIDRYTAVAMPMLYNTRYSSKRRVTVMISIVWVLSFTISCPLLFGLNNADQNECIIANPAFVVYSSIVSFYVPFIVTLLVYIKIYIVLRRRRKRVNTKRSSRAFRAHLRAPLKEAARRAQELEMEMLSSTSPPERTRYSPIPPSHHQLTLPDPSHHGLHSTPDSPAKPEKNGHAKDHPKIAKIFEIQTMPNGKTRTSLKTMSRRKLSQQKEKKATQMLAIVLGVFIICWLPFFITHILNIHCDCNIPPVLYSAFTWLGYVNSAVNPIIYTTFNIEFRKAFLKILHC

SERT, sequence (P31645 whole entry, species assumed): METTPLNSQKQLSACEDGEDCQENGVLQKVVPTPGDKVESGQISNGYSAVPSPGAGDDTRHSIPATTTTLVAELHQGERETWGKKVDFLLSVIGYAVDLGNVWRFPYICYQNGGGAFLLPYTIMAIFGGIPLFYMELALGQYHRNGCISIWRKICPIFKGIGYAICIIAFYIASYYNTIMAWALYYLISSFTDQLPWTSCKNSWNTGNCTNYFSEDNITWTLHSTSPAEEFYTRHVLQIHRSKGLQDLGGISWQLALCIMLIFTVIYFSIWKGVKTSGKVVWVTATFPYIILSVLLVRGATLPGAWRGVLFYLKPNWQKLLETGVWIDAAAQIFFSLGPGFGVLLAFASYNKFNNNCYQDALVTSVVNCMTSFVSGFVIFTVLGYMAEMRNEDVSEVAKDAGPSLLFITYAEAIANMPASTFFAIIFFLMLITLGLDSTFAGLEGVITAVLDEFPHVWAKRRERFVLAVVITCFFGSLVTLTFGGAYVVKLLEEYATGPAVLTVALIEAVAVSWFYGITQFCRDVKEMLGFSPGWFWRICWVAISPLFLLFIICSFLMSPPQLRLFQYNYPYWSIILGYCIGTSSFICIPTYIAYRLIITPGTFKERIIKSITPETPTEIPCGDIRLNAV
D1, sequence (P21728 whole entry): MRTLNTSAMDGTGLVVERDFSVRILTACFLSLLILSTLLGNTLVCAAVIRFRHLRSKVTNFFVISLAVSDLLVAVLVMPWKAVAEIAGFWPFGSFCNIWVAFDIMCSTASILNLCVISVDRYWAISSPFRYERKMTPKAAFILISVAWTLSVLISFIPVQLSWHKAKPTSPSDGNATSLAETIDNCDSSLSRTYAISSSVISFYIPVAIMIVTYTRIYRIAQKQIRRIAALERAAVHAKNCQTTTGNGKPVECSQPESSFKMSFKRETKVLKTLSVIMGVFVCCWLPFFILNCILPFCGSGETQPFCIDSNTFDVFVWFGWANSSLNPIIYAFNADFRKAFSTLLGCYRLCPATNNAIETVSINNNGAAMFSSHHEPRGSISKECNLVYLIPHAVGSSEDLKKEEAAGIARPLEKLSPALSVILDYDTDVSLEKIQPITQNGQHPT

Ki ([1]; read-out: Ki (nM) or maximum inhibition) | SMILES | D1 receptor binding, in words [2] | D2 affinity, in words [3] | SERT activity, in words ([1]; qualitative statement)
≤ 600 nM | O=C1CN2c3c(cccc3[C@@H]3CN(CCCOc4ccc(F)cc4)CC[C@@H]32)N1 [Compound A, reference compound] | – | – | –
– | O=C1CN2c3c(cccc3[C@H]3CN(CCCOc4ccc(F)cc4)CC[C@H]32)N1 [Example 1, (6bS,10aR)-8-(3-(4-fluorophenoxy)propyl)-6b,7,8,9,10,10a-hexahydro-1H-pyrido[3′,4′:4,5]pyrrolo[1,2,3-de]quinoxalin-2(3H)-one] | moderately strong D1 receptor binding | weak D2 affinity | no SERT activity
